# From patent US11730712B2, “Functionalized long-chain hydrocarbon mono- and di-carboxylic acids and derivatives thereof, and their use for the prevention or treatment of disease” (ESPERVITA THERAPEUTICS, INC., priority 2021, dated 2023)
# Tested on: liver fibrosis gene panel (770 genes)
# Experiment: Nanostring nCounter Fibrosis panel gene expression in liver of DEN-injected mice
# Format: in vivo, mouse
# Conditions: vs vehicle
# Method: Nanostring Analysis. RNA was extracted from paired liver and tumor tissue from vehicle, Compound I-1 (100 mg/kg) and Compound I-32 (100 mg/kg) treated mice using an RNeasy kit (Qiagen, Calif., USA) as per manufacturer's protocol. All RNA samples passed the BioAnalyzer quality control test. The expression of target genes in liver and tumor were analyzed using the nCounter Fibrosis and Cancer Panel (NanoString Technologies, Inc., WA, USA), respectively according to manufacturer's protocol at the McMaster Genomics Facility. Technical and biological normalization against global geometric mean was performed in nSolver 4.0 software (NanoString Technologies). Technical normalization was performed in the nSolver software (version 4.0.70) by normalizing sample target raw counts to the geometric mean of positive control spike-ins. Biological normalization was performed by normalizing sample target raw counts to the geometric mean of selected housekeeping genes (Ppia, Nubp1, Nol7, Armh3, Rplp0, Cnot10, Pgk1, and Acad9). Pathway scores were calculated as the first principal component of the normalized expression values for all genes in each pathway and samples were compiled according to experimental groups to determine average pathway scores. Statistical significance was calculated between experimental groups using multiple t-tests and p-values were corrected for multiple comparisons using Benjamin-Hochberg false discovery rate.
# Molecular analysis. To identify the pathways modulated in the liver and tumor tissue, nanostring analysis of fibrosis and cancer, pathways, respectively were completed in an n=8 mice treated with vehicle or Compound I-32 or Compound I-1 at 100 mg/kg.
smiles,measurement,setting,value
"CC(C)(CCCCc1ccc(CCCCC(C)(C)C(=O)O)cc1)C(=O)O [Compound I-1, 6-[4-(5-carboxy-5-methylhexyl)-phenyl]-2,2-dimethylhexanoic acid]",Tin1 Log2FC,"NM_011602, 100 mg/kg",−0.237
same,Txn1 Log2FC,"NM_011660, 100 mg/kg",0.281
same,Vegfb Log2FC,"NM_011697, 100 mg/kg",0.603
same,Vim Log2FC,"NM_011701, 100 mg/kg",−0.309
same,Adh4 Log2FC,"NM_011996, 100 mg/kg",−0.808
same,Apoa2 Log2FC,"NM_013474, 100 mg/kg",0.172
same,Apoh Log2FC,"NM_013475, 100 mg/kg",−0.225
same,C9 Log2FC,"NM_013485, 100 mg/kg",−1.55
same,Cpt1a Log2FC,"NM_013495, 100 mg/kg",−0.302
same,Creb3 Log2FC,"NM_013497, 100 mg/kg",−0.38
same,P3h3 Log2FC,"NM_013534, 100 mg/kg",−0.96
same,Ptpn6 Log2FC,"NM_013545, 100 mg/kg",0.326
same,Slc25a10 Log2FC,"NM_013770, 100 mg/kg",0.508
same,H2-M3 Log2FC,"NM_013819, 100 mg/kg",−0.69
same,Xbp1 Log2FC,"NM_013842, 100 mg/kg",−0.397
same,Col5a1 Log2FC,"NM_015734, 100 mg/kg",−0.513
same,Isg15 Log2FC,"NM_015783, 100 mg/kg",−0.727
same,C6 Log2FC,"NM_016704, 100 mg/kg",−0.969
same,Smad3 Log2FC,"NM_016769, 100 mg/kg",−0.317
same,Irf3 Log2FC,"NM_016849, 100 mg/kg",−0.154
same,Ywhag Log2FC,"NM_018871, 100 mg/kg",0.305
same,Fbp1 Log2FC,"NM_019395, 100 mg/kg",−0.878
same,Ndufa1 Log2FC,"NM_019443, 100 mg/kg",0.226
same,Cpb2 Log2FC,"NM_019775, 100 mg/kg",−0.58
same,Uba52 Log2FC,"NM_019883, 100 mg/kg",0.484
same,Ube2d2a Log2FC,"NM_019912, 100 mg/kg",−0.237
same,Aldh9a1 Log2FC,"NM_019993, 100 mg/kg",0.545
same,Angpti4 Log2FC,"NM_020581, 100 mg/kg",0.707
same,Isg20 Log2FC,"NM_020583, 100 mg/kg",−0.48
same,Abcb11 Log2FC,"NM_021022, 100 mg/kg",−0.442
same,Tlr4 Log2FC,"NM_021297, 100 mg/kg",−0.608
same,Mlxipl Log2FC,"NM_021455, 100 mg/kg",0.439
same,Cxcl12 Log2FC,"NM_021704, 100 mg/kg",−0.597
same,Apoc3 Log2FC,"NM_023114, 100 mg/kg",−0.657
same,Kng1 Log2FC,"NM_023125, 100 mg/kg",−0.396
same,Cxcl16 Log2FC,"NM_023158, 100 mg/kg",−0.374
same,Em1 Log2FC,"NM_023913, 100 mg/kg",−0.533
same,Sec61b Log2FC,"NM_024171, 100 mg/kg",−0.355
same,Cyp27a1 Log2FC,"NM_024264, 100 mg/kg",−0.594
same,Fabp4 Log2FC,"NM_024406, 100 mg/kg",1.01
same,Spop Log2FC,"NM_025287, 100 mg/kg",0.186
same,Ndufb5 Log2FC,"NM_025316, 100 mg/kg",0.415
same,Ssr2 Log2FC,"NM_025448, 100 mg/kg",−0.177
same,Psenen Log2FC,"NM_025498, 100 mg/kg",−0.126
same,Ndufc1 Log2FC,"NM_025523, 100 mg/kg",0.438
same,Cox6b1 Log2FC,"NM_025628, 100 mg/kg",0.532
same,Uqcrh Log2FC,"NM_025641, 100 mg/kg",0.311
same,Uqcrfs1 Log2FC,"NM_025710, 100 mg/kg",0.255
same,Map1lc3a Log2FC,"NM_025735, 100 mg/kg",0.807
same,Ndufb8 Log2FC,"NM_026061, 100 mg/kg",0.327
same,Erp29 Log2FC,"NM_026129, 100 mg/kg",−0.217
same,Uqcrb Log2FC,"NM_026219, 100 mg/kg",0.476
same,Hikeshi Log2FC,"NM_026304, 100 mg/kg",0.233
same,Sugt1 Log2FC,"NM_026474, 100 mg/kg",0.185
same,Atg101 Log2FC,"NM_026566, 100 mg/kg",−0.436
same,Ndufs3 Log2FC,"NM_026688, 100 mg/kg",0.26
same,Anapc10 Log2FC,"NM_026904, 100 mg/kg",−0.291
same,Ifi35 Log2FC,"NM_027320, 100 mg/kg",−0.465
same,Pgm2 Log2FC,"NM_028132, 100 mg/kg",0.361
same,Phykpl Log2FC,"NM_028398, 100 mg/kg",−0.165
same,Pik3cb Log2FC,"NM_029094, 100 mg/kg",−0.421
same,Tlr1 Log2FC,"NM_030682, 100 mg/kg",−1.09
same,Hcar2 Log2FC,"NM_030701, 100 mg/kg",1.71
same,Cpn1 Log2FC,"NM_030703, 100 mg/kg",0.371
same,Slc2a2 Log2FC,"NM_031197, 100 mg/kg",−0.543
same,Lamtor2 Log2FC,"NM_031248, 100 mg/kg",0.195
same,Loxl2 Log2FC,"NM_033325, 100 mg/kg",−0.689
same,Derl2 Log2FC,"NM_033562, 100 mg/kg",−0.334
same,Ube2n Log2FC,"NM_080560, 100 mg/kg",−0.15
same,Elovl6 Log2FC,"NM_130450, 100 mg/kg",0.819
same,Acaca Log2FC,"NM_133360, 100 mg/kg",0.655
same,Fgg Log2FC,"NM_133862, 100 mg/kg",−0.517
same,Acacb Log2FC,"NM_133904, 100 mg/kg",0.612
same,Il1rap Log2FC,"NM_134103, 100 mg/kg",−0.815
same,Ptpa Log2FC,"NM_138748, 100 mg/kg",0.372
same,Mylk Log2FC,"NM_139300, 100 mg/kg",−0.458
same,Fcgr4 Log2FC,"NM_144559, 100 mg/kg",−0.541
same,Aldob Log2FC,"NM_144903, 100 mg/kg",−0.665
same,C1s1 Log2FC,"NM_144938, 100 mg/kg",−0.902
same,Txndc5 Log2FC,"NM_145367, 100 mg/kg",−0.284
same,Jak1 Log2FC,"NM_146145, 100 mg/kg",−0.203
same,C8a Log2FC,"NM_146148, 100 mg/kg",−1.21
same,Pkhd1 Log2FC,"NM_153179, 100 mg/kg",−0.99
same,Nckap1l Log2FC,"NM_153505, 100 mg/kg",−0.473
same,Mbtps2 Log2FC,"NM_172307, 100 mg/kg",0.309
same,Cyp4a12a Log2FC,"NM_177406, 100 mg/kg",1.65
same,Acaa2 Log2FC,"NM_177470, 100 mg/kg",0.464
same,Ep300 Log2FC,"NM_177821, 100 mg/kg",−0.258
same,Jmjd4 Log2FC,"NM_178659, 100 mg/kg",−0.385
same,Nceh1 Log2FC,"NM_178772, 100 mg/kg",0.592
same,Hadha Log2FC,"NM_178878, 100 mg/kg",1.12
same,Mfap3 Log2FC,"NM_180599, 100 mg/kg",−0.377
same,Fgb Log2FC,"NM_181849, 100 mg/kg",−0.336
same,Bst2 Log2FC,"NM_198095, 100 mg/kg",0.596
same,H2-Ab1 Log2FC,"NM_207105, 100 mg/kg",−0.716
same,Acsl4 Log2FC,"NM_207625, 100 mg/kg",0.645
same,Cflar Log2FC,"NM_207653, 100 mg/kg",−0.214
same,Egfr Log2FC,"NM_207655, 100 mg/kg",−1.12
same,Mapk9 Log2FC,"NM_207692, 100 mg/kg",0.185
same,Stat3 Log2FC,"NM_213659, 100 mg/kg",−0.646
same,H2-K1 Log2FC,"NM_001001892, 100 mg/kg",−0.284
same,Kdm2a Log2FC,"NM_001001984, 100 mg/kg",−0.312
same,Depdc5 Log2FC,"NM_001025426, 100 mg/kg",−0.27
same,Cfhr2 Log2FC,"NM_001025575, 100 mg/kg",−0.626
same,Ndufs5 Log2FC,"NM_001030274, 100 mg/kg",0.414
same,Itga1 Log2FC,"NM_001033228, 100 mg/kg",−0.394
same,Ndufb6 Log2FC,"NM_001033305, 100 mg/kg",0.243
same,Xaf1 Log2FC,"NM_001037713, 100 mg/kg",−0.742
same,Banf1 Log2FC,"NM_001038231, 100 mg/kg",0.319
same,Smurf1 Log2FC,"NM_001038627, 100 mg/kg",−0.697
same,Nrp2 Log2FC,"NM_001077403, 100 mg/kg",0.665
same,Ptafr Log2FC,"NM_001081211, 100 mg/kg",−0.518
same,Brpf3 Log2FC,"NM_001081315, 100 mg/kg",0.434
same,Rapgef2 Log2FC,"NM_001099624, 100 mg/kg",−0.262
same,Kng2 Log2FC,"NM_001102410, 100 mg/kg",−0.305
same,Aqp8 Log2FC,"NM_001109045, 100 mg/kg",−0.993
same,Igf1 Log2FC,"NM_001111274, 100 mg/kg",−0.496
same,Lrrc32 Log2FC,"NM_001113379, 100 mg/kg",−0.438
same,Stat5b Log2FC,"NM_001113563, 100 mg/kg",−0.322
same,Il1r1 Log2FC,"NM_001123382, 100 mg/kg",−0.998
same,Aldh7a1 Log2FC,"NM_001127338, 100 mg/kg",−0.252
same,Chuk Log2FC,"NM_001162410, 100 mg/kg",0.202
same,Mmm1 Log2FC,"NM_001163507, 100 mg/kg",−0.231
same,Cyfip1 Log2FC,"NM_001164661, 100 mg/kg",−0.264
same,Akt1 Log2FC,"NM_001165894, 100 mg/kg",−0.226
same,Cd84 Log2FC,"NM_001252472, 100 mg/kg",−0.439
same,Apoc2 Log2FC,"NM_001277944, 100 mg/kg",−1.26
same,Cd68 Log2FC,"NM_001291058, 100 mg/kg",−0.613
same,Col6a3 Log2FC,"XM_897036, 100 mg/kg",−1.06
